Experiment: Solubility of hydrocodone free base in methylene chloride (solvent of the reaction completion test)

COc1ccc2c3c1O[C@H]1C(=O)CC[C@H]4[C@@H](C2)N(C)CC[C@]314 [hydrocodone free base]
soluble to the extent of (methylene chloride): 99.94%
